Test: Measurement of relaxivity of Gd-HP-DO3A-Dox-LTSL at 1.5T
Assay type: physicochemical
Conditions: free contrast agent
Method: T1 of all of the solutions was calculated from the fit of signal intensity vs. inversion time in images obtained with a T1-weighted inversion recovery sequence with variable inversion time (T1=50, 75, 100, 150, 300, 450, 600, 900, 1050 ms). Relaxivity was obtained as the slope of 1/T1 vs. Gd-HP-DO3A concentration. All imaging was performed using a clinical 1.5T MR scanner (Philips Medical Systems, Best, The Netherlands).

For `CC(O)CN1CCN(CC(=O)[O-])CCN(CC(=O)[O-])CCN(CC(=O)[O-])CC1.[Gd+3]` (stereo not shown) [ProHance®, gadolinium complex of 10-(2-hydroxy-propyl)-1,4,7,10-tetraazacyclododecane-1,4,7-triacetic acid], the “relaxivity (slope of 1/T1 vs concentration)” value was 4.05 ± 0.14 mM⁻¹ s⁻¹.

From patent US20120141381A1, “Methods For Loading Contrast Agents Into A Liposome” (Duke University Office of Technology & Venture, priority 2009, published 2012)
